Molecules are shown by their SMILES. *1 amine or outer side, *2 acyl side, *3 side chain or, on linkers, in order; H or OH if unused. Where a SMILES comes first, the peptide text is derived from it. Bridges are numbered along the chain shown (N, C = ends). TATA = O=C(CC[*:1])N1CN(C(=O)CC[*:2])CN(C(=O)CC[*:3])C1

One test has as its target T1, human Nectin-4 (Homo sapiens, UniProt Q96NY8).
T1 sequence (Q96NY8 32-510): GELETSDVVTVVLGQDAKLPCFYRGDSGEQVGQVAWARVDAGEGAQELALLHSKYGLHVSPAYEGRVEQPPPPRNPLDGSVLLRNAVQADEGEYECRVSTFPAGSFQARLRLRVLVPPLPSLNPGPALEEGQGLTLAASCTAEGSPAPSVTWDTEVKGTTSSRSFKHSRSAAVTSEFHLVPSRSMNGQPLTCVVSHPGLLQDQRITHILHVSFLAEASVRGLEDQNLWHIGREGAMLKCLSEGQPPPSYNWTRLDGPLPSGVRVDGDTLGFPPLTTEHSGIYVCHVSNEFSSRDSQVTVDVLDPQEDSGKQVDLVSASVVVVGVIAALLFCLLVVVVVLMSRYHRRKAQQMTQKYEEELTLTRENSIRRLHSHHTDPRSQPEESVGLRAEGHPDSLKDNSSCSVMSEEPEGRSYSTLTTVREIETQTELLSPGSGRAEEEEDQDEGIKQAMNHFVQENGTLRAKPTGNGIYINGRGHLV
Nature of the test: Nectin-4 competition binding assay (fluorescence polarisation).
Conditions: not given
The procedure, abridged: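 Ki derived by cubic-equation fit of mP data, with tracer peptide concentration, its Kd and Nectin-4 level as fixed inputs. Competition set up by adding 2-fold peptide dilutions (≤5% DMSO), then Nectin-4, then fluorescent peptide; polarisation measured as for direct binding.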
(In fluorescence polarisation assays a small probe gives low polarisation when free and higher when bound to something large.)
A word on the Ki: it is a dissociation constant, usually derived from enzyme kinetics or from competition with a known ligand. Compound `CC[C@H](C)[C@@H]1NC(=O)[C@@H]2CCCN2C(=O)[C@H](Cc2c[nH]c3ccccc23)NC(=O)[C@H](CO)NC(=O)[C@H](Cc2c[nH]c3ccccc23)NC(=O)[C@H](CC(=O)O)NC(=O)[C@H](CCCCN)NC(=O)[C@H](CCSC)NC(=O)[C@@H]2CSCCC(=O)N3CN(CN(C3)C(=O)CCSC[C@H](NC(C)=O)C(=O)N3CCC[C@H]3C(=O)N[C@@H](Cc3ccccc3)C(=O)NCC(=O)N2)C(=O)CCSC[C@@H](C(N)=O)NC(=O)[C@H](Cc2c[nH]c3ccccc23)NC1=O` [BCY7661, Ac-(SEQ ID NO: 15)] (Ac-CPFGCMKDWSWPIWC-NH2; linker 1-5-15 via TATA; C-terminus assumed) yielded an inhibition constant (Ki) of 29.4 nM.

The test is the same for the next values; noted with them: competition with fluorescent peptide SEQ ID NO: 217; read-out: Ki.
As to `CC[C@H](C)[C@@H]1NC(=O)[C@@H]2CCCN2C(=O)[C@H](Cc2c[nH]c3ccccc23)NC(=O)[C@H](CO)NC(=O)[C@H](Cc2c[nH]c3ccccc23)NC(=O)[C@H](CC(N)=O)NC(=O)[C@@H]2CCCN2C(=O)[C@H](CCSC)NC(=O)[C@@H]2CSCCC(=O)N3CN(CN(C3)C(=O)CCSC[C@H](NC(C)=O)C(=O)N3CCC[C@H]3C(=O)N[C@@H](Cc3ccccc3)C(=O)NCC(=O)N2)C(=O)CCSC[C@@H](C(N)=O)NC(=O)[C@H](Cc2c[nH]c3ccccc23)NC1=O` [BCY7614, Ac-(SEQ ID NO: 99)] (Ac-CPFGCMPNWSWPIWC-NH2; linker 1-5-15 via TATA; C-terminus assumed), the Ki is 21 nM.
Still for that read-out and setting: to `CC[C@H](C)[C@@H]1NC(=O)[C@H](CCCNC(=N)N)NC(=O)[C@H](CC(N)=O)NC(=O)[C@@H]2CSCCC(=O)N3CN(CN(C3)C(=O)CCSC[C@H](NC(=O)[C@H](Cc3c[nH]c4ccccc34)NC(=O)[C@H](CCCCN)NC(=O)[C@H](C)NC(C)=O)C(=O)N[C@@H](C)C(=O)N3CCC[C@H]3C(=O)N[C@@H](CC(C)C)C(=O)N[C@@H](CO)C(=O)N[C@@H](CC(=O)O)C(=O)N[C@@H](Cc3ccc(O)cc3)C(=O)N[C@@H](Cc3c[nH]c4ccccc34)C(=O)N2)C(=O)CCSC[C@@H](C(N)=O)NC1=O` [BCY7622, Ac-AKW-(SEQ ID NO: 34)] (Ac-AKWCAPLSDYWCNRIC-NH2; linker 4-12-16 via TATA; C-terminus assumed) belongs 31 nM; to `CC[C@H](C)[C@@H]1NC(=O)[C@H](CCCNC(=N)N)NC(=O)[C@H](CC(N)=O)NC(=O)[C@@H]2CSCCC(=O)N3CN(CN(C3)C(=O)CCSC[C@H](NC(=O)[C@H](Cc3c[nH]c4ccccc34)NC(=O)[C@H](C)NC(=O)[C@H](CCC(N)=O)NC(C)=O)C(=O)N[C@@H](C)C(=O)N3CCC[C@H]3C(=O)N[C@@H](CC(C)C)C(=O)N[C@@H](CO)C(=O)N[C@@H](CC(=O)O)C(=O)N[C@@H](Cc3ccc(O)cc3)C(=O)N[C@@H](Cc3c[nH]c4ccccc34)C(=O)N2)C(=O)CCSC[C@@H](C(N)=O)NC1=O` [BCY7623, Ac-QAW-(SEQ ID NO: 34)] (Ac-QAWCAPLSDYWCNRIC-NH2; linker 4-12-16 via TATA; C-terminus assumed), 21 nM.
On the same count and under the same terms, to `CC[C@H](C)[C@@H]1NC(=O)[C@H](CCCNC(=N)N)NC(=O)[C@H](CC(N)=O)NC(=O)[C@@H]2CSCCC(=O)N3CN(CN(C3)C(=O)CCSC[C@H](NC(=O)[C@H](C)NC(=O)[C@H](CCCCN)NC(=O)[C@H](CCC(N)=O)NC(C)=O)C(=O)N[C@@H](C)C(=O)N3CCC[C@H]3C(=O)N[C@@H](CC(C)C)C(=O)N[C@@H](CO)C(=O)N[C@@H](CC(=O)O)C(=O)N[C@@H](Cc3ccc(O)cc3)C(=O)N[C@@H](Cc3c[nH]c4ccccc34)C(=O)N2)C(=O)CCSC[C@@H](C(N)=O)NC1=O` [BCY7624, Ac-QKA-(SEQ ID NO: 34)] (Ac-QKACAPLSDYWCNRIC-NH2; linker 4-12-16 via TATA; C-terminus assumed) belongs 571 nM; to `CC[C@H](C)[C@@H]1NC(=O)[C@H](CCCNC(=N)N)NC(=O)[C@H](CC(N)=O)NC(=O)[C@@H]2CSCCC(=O)N3CN(CN(C3)C(=O)CCSC[C@H](NC(=O)[C@H](Cc3c[nH]c4ccccc34)NC(=O)[C@H](CCCCN)NC(=O)[C@H](CCC(N)=O)NC(C)=O)C(=O)N[C@@H](C)C(=O)N[C@@H](C)C(=O)N[C@@H](CC(C)C)C(=O)N[C@@H](CO)C(=O)N[C@@H](CC(=O)O)C(=O)N[C@@H](Cc3ccc(O)cc3)C(=O)N[C@@H](Cc3c[nH]c4ccccc34)C(=O)N2)C(=O)CCSC[C@@H](C(N)=O)NC1=O` [BCY7625, Ac-QKW-(SEQ ID NO: 103)] (Ac-QKWCAALSDYWCNRIC-NH2; linker 4-12-16 via TATA; C-terminus assumed), 141 nM.
Same read-out and setting: to `CC[C@H](C)[C@@H]1NC(=O)[C@H](CCCNC(=N)N)NC(=O)[C@H](CC(N)=O)NC(=O)[C@@H]2CSCCC(=O)N3CN(CN(C3)C(=O)CCSC[C@H](NC(=O)[C@H](Cc3c[nH]c4ccccc34)NC(=O)[C@H](CCCCN)NC(=O)[C@H](CCC(N)=O)NC(C)=O)C(=O)N[C@@H](C)C(=O)N3CCC[C@H]3C(=O)N[C@@H](CC(C)C)C(=O)N[C@@H](C)C(=O)N[C@@H](CC(=O)O)C(=O)N[C@@H](Cc3ccc(O)cc3)C(=O)N[C@@H](Cc3c[nH]c4ccccc34)C(=O)N2)C(=O)CCSC[C@@H](C(N)=O)NC1=O` [BCY7627, Ac-QKW-(SEQ ID NO: 104)] (Ac-QKWCAPLADYWCNRIC-NH2; linker 4-12-16 via TATA; C-terminus assumed) belongs 101 nM.
Regarding `CC[C@H](C)[C@@H]1NC(=O)[C@H](CCCNC(=N)N)NC(=O)[C@H](C)NC(=O)[C@@H]2CSCCC(=O)N3CN(CN(C3)C(=O)CCSC[C@H](NC(=O)[C@H](Cc3c[nH]c4ccccc34)NC(=O)[C@H](CCCCN)NC(=O)[C@H](CCC(N)=O)NC(C)=O)C(=O)N[C@@H](C)C(=O)N3CCC[C@H]3C(=O)N[C@@H](CC(C)C)C(=O)N[C@@H](CO)C(=O)N[C@@H](CC(=O)O)C(=O)N[C@@H](Cc3ccc(O)cc3)C(=O)N[C@@H](Cc3c[nH]c4ccccc34)C(=O)N2)C(=O)CCSC[C@@H](C(N)=O)NC1=O` [BCY7631, Ac-QKW-(SEQ ID NO: 106)] (Ac-QKWCAPLSDYWCARIC-NH2; linker 4-12-16 via TATA; C-terminus assumed), the inhibition constant Ki came to 19 nM.
Still for that read-out and setting: to `CC[C@H](C)[C@@H]1NC(=O)[C@H](C)NC(=O)[C@H](CC(N)=O)NC(=O)[C@@H]2CSCCC(=O)N3CN(CN(C3)C(=O)CCSC[C@H](NC(=O)[C@H](Cc3c[nH]c4ccccc34)NC(=O)[C@H](CCCCN)NC(=O)[C@H](CCC(N)=O)NC(C)=O)C(=O)N[C@@H](C)C(=O)N3CCC[C@H]3C(=O)N[C@@H](CC(C)C)C(=O)N[C@@H](CO)C(=O)N[C@@H](CC(=O)O)C(=O)N[C@@H](Cc3ccc(O)cc3)C(=O)N[C@@H](Cc3c[nH]c4ccccc34)C(=O)N2)C(=O)CCSC[C@@H](C(N)=O)NC1=O` [BCY7632, Ac-QKW-(SEQ ID NO: 107)] (Ac-QKWCAPLSDYWCNAIC-NH2; linker 4-12-16 via TATA; C-terminus assumed) belongs 123 nM; to `CC[C@H](C)[C@@H]1NC(=O)[C@@H]2CCCN2C(=O)[C@H](Cc2c[nH]c3ccccc23)NC(=O)[C@H](CO)NC(=O)[C@H](Cc2c[nH]c3ccccc23)NC(=O)[C@H](CC(N)=O)NC(=O)[C@H](CO)NC(=O)[C@H](CCSC)NC(=O)[C@@H]2CSCCC(=O)N3CN(CN(C3)C(=O)CCSC[C@H](NC(C)=O)C(=O)N3CCC[C@H]3C(=O)N[C@@H](Cc3ccccc3)C(=O)NCC(=O)N2)C(=O)CCSC[C@@H](C(N)=O)NC(=O)[C@H](Cc2c[nH]c3ccccc23)NC1=O` [BCY7658, Ac-(SEQ ID NO: 12)] (Ac-CPFGCMSNWSWPIWC-NH2; linker 1-5-15 via TATA; C-terminus assumed), 33.6 nM.
On the same count and under the same terms, the figure for `CC[C@H](C)[C@@H]1NC(=O)[C@@H]2CCCN2C(=O)[C@H](Cc2c[nH]c3ccccc23)NC(=O)[C@H](CO)NC(=O)[C@H](Cc2c[nH]c3ccccc23)NC(=O)[C@H](CC(N)=O)NC(=O)[C@H](CC(=O)O)NC(=O)[C@H](CCSC)NC(=O)[C@@H]2CSCCC(=O)N3CN(CN(C3)C(=O)CCSC[C@H](NC(C)=O)C(=O)N3CCC[C@H]3C(=O)N[C@@H](Cc3ccccc3)C(=O)NCC(=O)N2)C(=O)CCSC[C@@H](C(N)=O)NC(=O)[C@H](Cc2c[nH]c3ccccc23)NC1=O` [BCY7659, Ac-(SEQ ID NO: 13)] (Ac-CPFGCMDNWSWPIWC-NH2; linker 1-5-15 via TATA; C-terminus assumed) is 77.9 nM; for `CC[C@H](C)[C@@H]1NC(=O)[C@@H]2CCCN2C(=O)[C@H](Cc2c[nH]c3ccccc23)NC(=O)[C@H](CO)NC(=O)[C@H](Cc2c[nH]c3ccccc23)NC(=O)[C@H](CC(N)=O)NC(=O)[C@H](CCCCNC(=N)N)NC(=O)[C@H](CCSC)NC(=O)[C@@H]2CSCCC(=O)N3CN(CN(C3)C(=O)CCSC[C@H](NC(C)=O)C(=O)N3CCC[C@H]3C(=O)N[C@@H](Cc3ccccc3)C(=O)NCC(=O)N2)C(=O)CCSC[C@@H](C(N)=O)NC(=O)[C@H](Cc2c[nH]c3ccccc23)NC1=O` [BCY7660, Ac-(SEQ ID NO: 59)] it is 26.2 nM; for `CC[C@H](C)[C@@H]1NC(=O)[C@@H]2CCCN2C(=O)[C@H](Cc2c[nH]c3ccccc23)NC(=O)[C@H](CO)NC(=O)[C@H](Cc2c[nH]c3ccccc23)NC(=O)[C@H](Cc2c[nH]cn2)NC(=O)[C@H](CCCCN)NC(=O)[C@H](CCSC)NC(=O)[C@@H]2CSCCC(=O)N3CN(CN(C3)C(=O)CCSC[C@H](NC(C)=O)C(=O)N3CCC[C@H]3C(=O)N[C@@H](Cc3ccccc3)C(=O)NCC(=O)N2)C(=O)CCSC[C@@H](C(N)=O)NC(=O)[C@H](Cc2c[nH]c3ccccc23)NC1=O` [BCY7662, Ac-(SEQ ID NO: 16)] (Ac-CPFGCMKHWSWPIWC-NH2; linker 1-5-15 via TATA; C-terminus assumed) it is 14.8 nM.

(Values after US12459974B2, “Bicyclic peptide ligands specific for Nectin-4” (priority 2018, dated 2025).)
